Tests used:
[1] = system: S. pneumoniae D39V; assay: fitness (endpoint OD595 vs no drug) (fraction); higher = more growth
Method in brief: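 In 384-well plates at 37 °C, cultures began at OD595 0.01 in 30 µl, with 55 µl used for S. pneumoniae. OD595 readings every 30 min for 14 h were corrected by the first reading. Fitness divides the stationary-phase transition optical density by the robust mean of no-drug control wells. The result is capped at 1.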

[2] = system: B. subtilis 168; assay: Bliss interaction score (quartile over a dose matrix) (fitness difference); higher = more antagonism (negative = synergy)
Method in brief: (§1)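 Values were capped at 1 after dividing OD595 at stationary-phase entry by the plate's robust no-drug mean. This ratio is fitness, and single-drug fitness was inferred from the combination data. The Bliss score is observed minus product-expected fitness, given as quartiles over technical, biological and donor/recipient replicates.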

[3] = system: S. aureus DSM 20231; assay: as above
Method in brief: as §1

[4] = system: S. aureus Newman; assay: as above
Method in brief: as §1

[5] = system: S. pneumoniae D39V; assay: as above
Method in brief: as §1
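Throughout, for Bliss interaction score (quartile over a dose matrix): first quartile when negative (synergy) and third quartile when positive (antagonism).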

CCCCCCCCCC(=O)N[C@@H](Cc1c[nH]c2ccccc12)C(=O)N[C@H](CC(N)=O)C(=O)N[C@@H](CC(=O)O)C(=O)N[C@@H]1C(=O)NCC(=O)N[C@@H](CCCN)C(=O)N[C@@H](CC(=O)O)C(=O)N[C@H](C)C(=O)N[C@@H](CC(=O)O)C(=O)NCC(=O)N[C@H](CO)C(=O)N[C@@H]([C@H](C)CC(=O)O)C(=O)N[C@@H](CC(=O)c2ccccc2N)C(=O)O[C@@H]1C [Daptomycin] + O=C1CN(/N=C/c2ccc([N+](=O)[O-])o2)C(=O)N1 [Nitrofurantoin]
fitness ([1]; first compound 1 µg/mL, partner 1.285 µg/mL): 0.981
fitness ([1]; first compound 1 µg/mL, partner 2 µg/mL): 0.883
fitness ([1]; first compound 1 µg/mL, partner 2.57 µg/mL): 0.946
fitness ([1]; first compound 1 µg/mL, partner 4 µg/mL): 0.788
fitness ([1]; first compound 1 µg/mL, partner 5.14 µg/mL, one replicate): 0.839
fitness ([1]; first compound 1 µg/mL, partner 8 µg/mL): 0.338
fitness ([1]; first compound 2 µg/mL, partner 1.285 µg/mL): 0.943
fitness ([1]; first compound 2 µg/mL, partner 2 µg/mL): 0.85
fitness ([1]; first compound 2 µg/mL, partner 2.57 µg/mL): 0.904
fitness ([1]; first compound 2 µg/mL, partner 4 µg/mL): 0.763
fitness ([1]; first compound 2 µg/mL, partner 5.14 µg/mL, one replicate): 0.82
fitness ([1]; first compound 2 µg/mL, partner 8 µg/mL): 0.327
fitness ([1]; first compound 4 µg/mL, partner 1.285 µg/mL): 0.948
fitness ([1]; first compound 4 µg/mL, partner 2 µg/mL): 0.808
fitness ([1]; first compound 4 µg/mL, partner 2.57 µg/mL): 0.948
fitness ([1]; first compound 4 µg/mL, partner 4 µg/mL): 0.704
fitness ([1]; first compound 4 µg/mL, partner 5.14 µg/mL, one replicate): 0.883
fitness ([1]; first compound 4 µg/mL, partner 8 µg/mL): 0.34
Bliss interaction score [2]: -0.0871
Bliss interaction score [3]: 0.0921
Bliss interaction score [4]: 0.0519
Bliss interaction score [5]: 0.0606

C[C@H]1COc2c(N3CCN(C)CC3)c(F)cc3c(=O)c(C(=O)O)cn1c23 [Levofloxacin] + C/C(=C\C(=O)OCCCCCCCCC(=O)O)C[C@@H]1OC[C@H](C[C@@H]2O[C@H]2[C@@H](C)[C@H](C)O)[C@@H](O)[C@H]1O [Pseudomonic acid]
fitness ([1]; first compound 0.1725 µg/mL, partner 0.03 µg/mL): 0.875
fitness ([1]; first compound 0.1725 µg/mL, partner 0.06 µg/mL): 0.822
fitness ([1]; first compound 0.1725 µg/mL, partner 0.12 µg/mL): 0.57
fitness ([1]; first compound 0.2 µg/mL, partner 0.03 µg/mL): 0.899
fitness ([1]; first compound 0.2 µg/mL, partner 0.06 µg/mL): 0.752
fitness ([1]; first compound 0.2 µg/mL, partner 0.12 µg/mL): 0.573
fitness ([1]; first compound 0.345 µg/mL, partner 0.03 µg/mL): 0.856
fitness ([1]; first compound 0.345 µg/mL, partner 0.06 µg/mL): 0.781
fitness ([1]; first compound 0.345 µg/mL, partner 0.12 µg/mL): 0.524
fitness ([1]; first compound 0.4 µg/mL, partner 0.03 µg/mL): 0.882
fitness ([1]; first compound 0.4 µg/mL, partner 0.06 µg/mL): 0.766
fitness ([1]; first compound 0.4 µg/mL, partner 0.12 µg/mL): 0.599
fitness ([1]; first compound 0.69 µg/mL, partner 0.03 µg/mL): 0.598
fitness ([1]; first compound 0.69 µg/mL, partner 0.06 µg/mL): 0.541
fitness ([1]; first compound 0.69 µg/mL, partner 0.12 µg/mL): 0.376
fitness ([1]; first compound 0.8 µg/mL, partner 0.03 µg/mL): 0.647
fitness ([1]; first compound 0.8 µg/mL, partner 0.06 µg/mL): 0.687
fitness ([1]; first compound 0.8 µg/mL, partner 0.12 µg/mL): 0.519
Bliss interaction score [2]: 0.0468
Bliss interaction score [3]: 0.0199
Bliss interaction score [4]: 0.0537
Bliss interaction score [5]: 0.0974

C[C@H]1COc2c(N3CCN(C)CC3)c(F)cc3c(=O)c(C(=O)O)cn1c23 [Levofloxacin] + CN[C@H](CC(C)C)C(=O)N[C@H]1C(=O)N[C@@H](CC(N)=O)C(=O)N[C@H]2C(=O)N[C@H]3C(=O)N[C@H](C(=O)N[C@H](C(=O)O)c4cc(O)cc(O)c4-c4cc3ccc4O)[C@H](O)c3ccc(c(Cl)c3)Oc3cc2cc(c3O[C@@H]2O[C@H](CO)[C@@H](O)[C@H](O)[C@H]2O[C@H]2C[C@](C)(N)[C@H](O)[C@H](C)O2)Oc2ccc(cc2Cl)[C@H]1O [Vancomycin]
fitness ([1]; first compound 0.1725 µg/mL, partner 0.125 µg/mL): 0.857
fitness ([1]; first compound 0.1725 µg/mL, partner 0.5 µg/mL): 0.0371
fitness ([1]; first compound 0.2 µg/mL, partner 0.03125 µg/mL): 0.931
fitness ([1]; first compound 0.2 µg/mL, partner 0.0625 µg/mL): 0.893
fitness ([1]; first compound 0.2 µg/mL, partner 0.125 µg/mL): 0.704
fitness ([1]; first compound 0.345 µg/mL, partner 0.125 µg/mL): 0.818
fitness ([1]; first compound 0.345 µg/mL, partner 0.5 µg/mL): 0.0522
fitness ([1]; first compound 0.4 µg/mL, partner 0.03125 µg/mL): 0.834
fitness ([1]; first compound 0.4 µg/mL, partner 0.0625 µg/mL): 0.812
fitness ([1]; first compound 0.4 µg/mL, partner 0.125 µg/mL): 0.605
fitness ([1]; first compound 0.69 µg/mL, partner 0.25 µg/mL): 0.213
fitness ([1]; first compound 0.69 µg/mL, partner 0.5 µg/mL): 0.0787
fitness ([1]; first compound 0.8 µg/mL, partner 0.03125 µg/mL): 0.365
fitness ([1]; first compound 0.8 µg/mL, partner 0.0625 µg/mL): 0.436
fitness ([1]; first compound 0.8 µg/mL, partner 0.125 µg/mL): 0.292
Bliss interaction score [2]: 0.0448
Bliss interaction score [3]: -0.0494
Bliss interaction score [4]: -0.0425
Bliss interaction score [5]: -0.1

C[C@H]1COc2c(N3CCN(C)CC3)c(F)cc3c(=O)c(C(=O)O)cn1c23 [Levofloxacin] + CO[C@H]1/C=C/O[C@@]2(C)Oc3c(C)c(O)c4c(O)c(c(/C=N/N5CCN(C)CC5)c(O)c4c3C2=O)NC(=O)/C(C)=C\C=C\[C@H](C)[C@H](O)[C@@H](C)[C@@H](O)[C@@H](C)[C@H](OC(C)=O)[C@@H]1C [Rifampicin]
fitness ([1]; first compound 0.1725 µg/mL, partner 0.05 µg/mL): 0.902
fitness ([1]; first compound 0.1725 µg/mL, partner 0.2 µg/mL): 0.356
fitness ([1]; first compound 0.2 µg/mL, partner 0.025 µg/mL, one replicate): 0.843
fitness ([1]; first compound 0.2 µg/mL, partner 0.2 µg/mL, one replicate): 0
fitness ([1]; first compound 0.345 µg/mL, partner 0.05 µg/mL): 0.848
fitness ([1]; first compound 0.4 µg/mL, partner 0.025 µg/mL, one replicate): 0.805
fitness ([1]; first compound 0.4 µg/mL, partner 0.05 µg/mL): 0.724
fitness ([1]; first compound 0.4 µg/mL, partner 0.2 µg/mL, one replicate): 0
fitness ([1]; first compound 0.69 µg/mL, partner 0.05 µg/mL): 0.611
fitness ([1]; first compound 0.69 µg/mL, partner 0.2 µg/mL): 0.288
fitness ([1]; first compound 0.8 µg/mL, partner 0.025 µg/mL, one replicate): 0.725
fitness ([1]; first compound 0.8 µg/mL, partner 0.05 µg/mL): 0.665
fitness ([1]; first compound 0.8 µg/mL, partner 0.2 µg/mL, one replicate): 0
Bliss interaction score [2]: 0.0398
Bliss interaction score [3]: 0.0251
Bliss interaction score [4]: 0.0412
Bliss interaction score [5]: 0.11

C[C@H]1COc2c(N3CCN(C)CC3)c(F)cc3c(=O)c(C(=O)O)cn1c23 [Levofloxacin] + Clc1ccc(COC(Cn2ccnc2)c2ccc(Cl)cc2Cl)c(Cl)c1 [Miconazole]
fitness ([1]; first compound 0.1725 µg/mL, partner 1.25 µg/mL): 0.955
fitness ([1]; first compound 0.1725 µg/mL, partner 2.5 µg/mL): 0.976
fitness ([1]; first compound 0.1725 µg/mL, partner 5 µg/mL): 0.963
fitness ([1]; first compound 0.2 µg/mL, partner 1.073 µg/mL): ≥ 1
fitness ([1]; first compound 0.2 µg/mL, partner 2.145 µg/mL): ≥ 1
fitness ([1]; first compound 0.2 µg/mL, partner 4.29 µg/mL): 0.978
fitness ([1]; first compound 0.345 µg/mL, partner 1.25 µg/mL): 0.866
fitness ([1]; first compound 0.345 µg/mL, partner 2.5 µg/mL): 0.856
fitness ([1]; first compound 0.345 µg/mL, partner 5 µg/mL): 0.859
fitness ([1]; first compound 0.4 µg/mL, partner 1.073 µg/mL): 0.934
fitness ([1]; first compound 0.4 µg/mL, partner 2.145 µg/mL): 0.941
fitness ([1]; first compound 0.4 µg/mL, partner 4.29 µg/mL): 0.825
fitness ([1]; first compound 0.69 µg/mL, partner 1.25 µg/mL): 0.576
fitness ([1]; first compound 0.69 µg/mL, partner 2.5 µg/mL): 0.432
fitness ([1]; first compound 0.69 µg/mL, partner 5 µg/mL): 0.578
fitness ([1]; first compound 0.8 µg/mL, partner 4.29 µg/mL): 0.769
Bliss interaction score [2]: 0.0649
Bliss interaction score [3]: -0.0265
Bliss interaction score [4]: 0.0464
Bliss interaction score [5]: 0.11

Source: the supplement of paper PMC10627819
